According to patent US7792576B2, “Method of treatment for central nervous system injury” (Purdue Research Foundation, priority 2002, dated 2010):

Assays:
[1] = system: CTM reflex after right lateral hemisection of the spinal cord in adult guinea pig; test: Behavioral recovery of the cutaneous trunci muscle (CTM) reflex after chronic spinal cord injury (Study One); type: in vivo
Text: Fully adult (approximately 400 grams (g)) female guinea pigs were used in this study (Hartley Strain). They were anesthetized with ketamine/xylyzine by conventional methods (Borgens et al. (2002) J. Exp. Biol. 205, 1-12) prior to surgery, kept warm with heat lamps after surgery, and maintained individually in pens and fed ad libidum for the duration of the investigation. Animals were euthanized at the end of the study, prior to the harvesting of spinal cords for anatomical study by an overdose of the anesthesia (see Borgens et al. (2002) J. Exp. Biol. 205, 1-12).
A laminectomy procedure exposing the dorsal aspect of the spinal cord was performed on all animals between T9 and T11. A right lateral hemisection was performed (FIG. 1) using a special cutting device, and further confirmed to be “complete” (that is, leaving no spared parenchyma) by passing a sharpened pin through the cut tissue. This operation severs the entire right side of the cord from the midline to the far right border of the spinal cord forming a rostral and caudal segment. The entire left side of the spinal cord was left intact. Immediately after transection, a marker device made of surgical stainless steel was inserted into the lesion, as previously described in Borgens et al. (1986) J. Comp. Neurol 250, 168-180 and Borgens and Bohnert (1997) Exp. Neurol. 145, 376-389. […]

[2] = system: retinal ganglion cells; details: administered in vitro to retinal ganglion cells; U.S. Pat. No. 6,440,455 and Benowitz et al. 1999; cited from earlier work
[3] = system: ascending and descending axons of transected spinal cord white matter in adult guinea pig; test: Anterograde intracellular labeling of spinal cord white matter axons: axonal projections relative to the plane of transection (Study One); type: in vivo
Protocol: A laminectomy procedure exposing the dorsal aspect of the spinal cord was performed on all animals between T9 and T11. A right lateral hemisection was performed (FIG. 1) using a special cutting device, and further confirmed to be “complete” (that is, leaving no spared parenchyma) by passing a sharpened pin through the cut tissue. This operation severs the entire right side of the cord from the midline to the far right border of the spinal cord forming a rostral and caudal segment. The entire left side of the spinal cord was left intact. Immediately after transection, a marker device made of surgical stainless steel was inserted into the lesion, as previously described in Borgens et al. (1986) J. Comp. Neurol 250, 168-180 and Borgens and Bohnert (1997) Exp. Neurol. 145, 376-389. This device was left in situ for the duration of the study, and removed prior to histological processing. This procedure leaves a hole in the tissue, which accurately marks the exact plane of transaction even in chronic injuries many months old (FIGS. 1 and 2). The injection of various intracellular labels into guinea pig spinal cord white matter has been described in numerous previous publications. See, for example, Borgens et al. (1986) J Comp Neurol 250, 168-180 and Borgens et al. (1999) Journal of Neurotrauma 16, 639-57. Briefly, approximately 18 hours prior to the sacrifice of the animal, the spinal cord was exposed by surgery, and approximately […], of a fluorescently labeled dextran was injected using a Hamiliton syringe. The label (50% in distilled water; 10,000 Daltons) was injected deep into the parenchyma of white matter, approximately two vertebral segments rostral and caudal of the plane of transection (usually still visible, due to the indwelling marker device). A FITC conjugated dextran (“Flouro-emerald”) was injected rostral to the plane of transection, and a rhodamine-conjugated dextran (“Flouro-ruby”) was injected caudal to the plane of transaction. Thus, this anterograde double label technique marked both ascending fibers (mostly sensory afferent fibers) projecting towards the lesion from below it and descending axons (mainly motor fibers) projecting towards the lesion from above it). Longitudinal horizontal sections provided histological samples in which the entire extent of projection of a single axon often can be traced to fall short of, or regenerate to, around, or through the plane of transection. This procedure can sometimes provide dramatic examples of single unit axon degeneration and regeneration. However, it is not productive to attempt to count individual axons in longitudinal horizontal sections. Often axons take tortuous and curving trajectories, and would be counted more than once in individual histological samples. Additionally, sprouting and branching of fibers can lead to false counting relative to the extended growth from the stump of an individual severed fiber. Rather, the proportion of animals in which axons can be traced to terminate more than 250 μms from the plane of transaction (exactly identified by use of the indwelling marker), within 250 μms of the actual plane of transaction, and to cross the exact plane of transection into the adjacent segment of cord is compared. […] Images from an Olympus Van Ox microscope were obtained with an Optronics DEI-750 color video camera and captured to a PC with Adobe Twain 32 software. Table 1, below, provides the numbers of spinal cords that were injected with the intracellular label (N) and those that were lost to histology (LTH) for each of the three groups. The proportions of those cords in which marked fibers were traced to the four zones are given over the number of cords examined. Statistical Comparison between the groups is provided at the bottom of the graph (Fishers' exact two tailed test). […] Table 1 summarizes the results of anterograde filling of both ascending and descending tracts within the spinal cords of all animals in the Study One, of chronically injured animals. […]

SMILES	percent recovery of the CTM receptive field (mean) ([1]; at the end of the study, chronic SCI, P=0.5 between groups (Mann Whitney)) [%]	animals that recovered some amount of CTM behavior ([1]; chronic SCI treated about 3 months after hemisection, inosine 10 mM s.c. osmotic pump 14 days, with or without OFS 4 weeks, 15 inosine, 16 inosine+OFS animals, none of 15 controls recovered) [animals]	axonal outgrowth [2]	Descending fibers, Zone 4: proportion of cords ([3]; FITC-labeled descending fibers projecting into the adjacent segment of cord, over number of cords examined)	Descending fibers, Zone 3: proportion of cords ([3]; FITC-labeled descending fibers terminating at the plane of transection, over number of cords examined)	Descending fibers, Zone 1 >250: cords with labeled fibers ([3]; FITC-labeled descending fibers terminating more than 250 μm from the plane of transection, chronic SCI)	Descending fibers, Zone 2 <250: proportion of cords ([3]; FITC-labeled descending fibers within 250 μm of the plane of transection, over number of cords examined)	Ascending fibers, Zone 4: proportion of cords ([3]; rhodamine-labeled ascending fibers projecting into the adjacent segment of cord, over number of cords examined)	Ascending fibers, Zone 3: proportion of cords ([3]; rhodamine-labeled ascending fibers terminating at the plane of transection, over number of cords examined)	Ascending fibers, Zone 1 >250: cords with labeled fibers ([3]; rhodamine-labeled ascending fibers terminating more than 250 μm from the plane of transection, chronic SCI)	Ascending fibers, Zone 2 <250: proportion of cords ([3]; rhodamine-labeled ascending fibers within 250 μm of the plane of transection, over number of cords examined)
OC[C@H]1O[C@@H](n2cnc3c(O)ncnc32)[C@H](O)[C@@H]1O [Inosine, inosine]	23.5±3.6	11	stimulating axonal outgrowth	1/8	2/8	8	7/8	2/12	7/12	12	10/12
Nc1nc2c(ncn2[C@@H]2O[C@H](CO)[C@@H](O)[C@H]2O)c(=O)[nH]1 [guanosine]			stimulating axonal outgrowth								
